Results as given in patent publication US6562317B2, “Radioactive embolizing compositions” (Micro Therapeutics, Inc., priority 1997, dated 2003).

Experiment: Cure of prepolymer injected into 0.1 N NaHCO3 aqueous solution simulating a blood environment
Type: physicochemical
Conditions: cyanoacrylate without iridium, same procedure
Method: About 0.2 cc of this composition was taken up in a 1 cc syringe through a 21 gage needle and injected into about 150 cc of a 0.1 N NaHCO3 aqueous solution to simulate a blood environment and cure the prepolymer. Upon injection, three small black/gray droplets were formed which immediately fell to the bottom of the container. It took about 15 minutes for the cyanoacrylate to fully cure and to be tack free.

Question: Which “cure time compared with the iridium composition” value does the source give for `C=C(C#N)C(=O)OCCCC` [cyanoacrylate alone, n-butyl cyanoacrylate] here?
Answer: cured in approximately the same time
